# Assay results taken from patent US20020173538A1, “Method for sensitizing cancer cells to cancer therapies with a mevalonate-reducing compound” (priority 2000, published 2002).
# Read-outs that look alike come from different tables or passages of the source.
# Assays:
# [1] = tested on: Hep 3B/T2 cells; experiment: Tumor growth of Hep 3B/T2 cells in nude mice; type: in vivo, BALB/c-nu/nu nude mice
# Excerpt: The descriptive statistics were summarized as mean±STD. For statistical analysis, Student's t-test was used to determine significance of mean differences between groups.
# [2] = tested on: Hep 3B cells; experiment: Cell cycle determination by flow cytometry, Hep 3B; type: cell-based, human; settings: cell line not given
# [3] = tested on: Hep 3B/T2 cells; experiment: Tumor growth of Hep 3B/T2 cells in nude mice; type: in vivo, BALB/c-nu/nu nude mice; settings: for Tumor size: LOV 75 mg/kg/day p.o. days 8-14 and/or taxol 120 μg/kg/day i.p. days 15-19, n = 3
# [4] = MTT cell viability assay, Hep G2 cells (serum-free DMEM); settings: human, Hep G2 cells, Cell viability
# Excerpt: (§1) Human hepatoma cell lines Hep G2 and Hep 3 were chosen as the in vitro models of hepatocytes and hepatoma, respectively.
# [5] = tested on: Hep G2 cells; experiment: as above; settings: Homo sapiens
# Excerpt: as §1
# [6] = tested on: Hep 3B cells; experiment: MTT cell viability assay, Hep 3B cells (serum-free DMEM); settings: Homo sapiens, Hep3B, 48 h
# Excerpt: as §1
# [7] = Cycle 1 (Day 42), LOV 37.5 mg/kg/day p.o. days 28-34 and 49-55 and/or taxol 120 μg/kg/2 day i.p. day 36, 38, 40, 57, 59, 61
# [8] = Cycle 2 (Day 63), LOV 37.5 mg/kg/day p.o. days 28-34 and 49-55 and/or taxol 120 μg/kg/2 day i.p. day 36, 38, 40, 57, 59, 61
compound,measurement,setting,value
"CC(=O)O[C@H]1C(=O)[C@@]2(C)[C@H]([C@H](OC(=O)c3ccccc3)[C@]3(O)C[C@H](OC(=O)[C@H](O)[C@@H](NC(=O)c4ccccc4)c4ccccc4)C(C)=C1C3(C)C)[C@]1(OC(C)=O)CO[C@@H]1C[C@@H]2O [Taxol, paclitaxel]",Tumor size,[1]; [7],0.465 cm^3
same,Tumor size,[1]; [8],1.424 cm^3
same,percentage of inhibition of tumor size,[1]; [8],(−43.1%
same,Tumor size,"[1]; Day 15, LOV 75 mg/kg/day p.o. days 8-14 and/or taxol 120 μg/kg/day i.p. days 15-19, n = 3",0.125 cm^3
same,Tumor size,"[1]; Day 20, LOV 75 mg/kg/day p.o. days 8-14 and/or taxol 120 μg/kg/day i.p. days 15-19, n = 3",0.047 cm^3
same,Tumor size,"[1]; Day 23, LOV 75 mg/kg/day p.o. days 8-14 and/or taxol 120 μg/kg/day i.p. days 15-19, n = 3",0.037 cm^3
same,Tumor size (1 × w^2 × 0.52 cm^3) Day 28,"[1]; Day 28 after inoculation of 1 × 10^7 Hep 3B/T2 cells in male BALB/c-nu/nu nude mice, p.o. lovastatin 37.5 mg/kg/day (days 28-34, 49-55) and/or i.p. taxol 120 μg/kg/2 day (days 36, 38, 40, 57, 59, 61), mean ± SEM",0.170 cm^3
same,Tumor size,"[1]; after two cycles: lovastatin fed 7 days, then paclitaxel injected 3 days (FIG. 38), mean±STD",1.43±0.46 cm^3
same,cell cycle arrest stage,[2],G2/M arrest
same,percentage of inhibition of tumor size,[3]; [7],(−54.2%
same,Tumor size,[3]; Day 8,0.111 cm^3
same,Tumor size,[3]; Day 11,0.125 cm^3
same,Tumor size,[3]; Day 17,0.063 cm^3
same,Tumor size,[3]; Day 26,0.064 cm^3
same,Tumor size,[3]; Day 29,0.137 cm^3
same,Tumor size (1 × w^2 × 0.52 cm^3) Day 35,"[3]; Day 35 after inoculation, p.o. lovastatin 37.5 mg/kg/day (days 28-34, 49-55) and/or i.p. taxol 120 μg/kg/2 day (days 36, 38, 40, 57, 59, 61), mean ± SEM",0.400 cm^3
same,Tumor size (1 × w^2 × 0.52 cm^3) Day 38,"[3]; Day 38 after inoculation, p.o. lovastatin 37.5 mg/kg/day (days 28-34, 49-55) and/or i.p. taxol 120 μg/kg/2 day (days 36, 38, 40, 57, 59, 61), mean ± SEM",0.415 cm^3
same,Tumor size (1 × w^2 × 0.52 cm^3) Day 42,"[3]; Day 42 after inoculation, p.o. lovastatin 37.5 mg/kg/day (days 28-34, 49-55) and/or i.p. taxol 120 μg/kg/2 day (days 36, 38, 40, 57, 59, 61), mean ± SEM",0.465 cm^3
same,Tumor size (1 × w^2 × 0.52 cm^3) Day 49,"[3]; Day 49 after inoculation, p.o. lovastatin 37.5 mg/kg/day (days 28-34, 49-55) and/or i.p. taxol 120 μg/kg/2 day (days 36, 38, 40, 57, 59, 61), mean ± SEM",0.811 cm^3
same,Tumor size (1 × w^2 × 0.52 cm^3) Day 56,"[3]; Day 56 after inoculation, p.o. lovastatin 37.5 mg/kg/day (days 28-34, 49-55) and/or i.p. taxol 120 μg/kg/2 day (days 36, 38, 40, 57, 59, 61), mean ± SEM",0.996 cm^3
same,Tumor size (1 × w^2 × 0.52 cm^3) Day 63,"[3]; Day 63 after inoculation, p.o. lovastatin 37.5 mg/kg/day (days 28-34, 49-55) and/or i.p. taxol 120 μg/kg/2 day (days 36, 38, 40, 57, 59, 61), mean ± SEM",1.424 cm^3
same,"viability at 48 h, 2 nM","[4]; no lovastatin 48 hr, then taxol 2 nM 48 hr",92.2 ± 1.5%
same,"viability at 48 h, 5 nM","[4]; no lovastatin 48 hr, then taxol 5 nM 48 hr",61.5 ± 2.2%
same,"viability at 48 h, 10 nM","[4]; no lovastatin 48 hr, then taxol 10 nM 48 hr",57.9 ± 3.3%
same,"viability at 48 h, 2 nM","[4]; no lovastatin 72 hr, then taxol 2 nM 48 hr",85.1 ± 1.9%
same,"viability at 72 hr, 2 nM","[4]; no lovastatin 72 hr, then taxol 2 nM 72 hr",77.7 ± 2.6%
same,"viability at 48 h, 5 nM","[4]; no lovastatin 72 hr, then taxol 5 nM 48 hr",64.2 ± 1.2%
same,"viability at 72 h, 5 nM","[4]; no lovastatin 72 hr, then taxol 5 nM 72 hr",65.8 ± 1.3%
same,"viability at 48 h, 10 nM","[4]; no lovastatin 72 hr, then taxol 10 nM 48 hr",60.5 ± 3.2%
same,"viability at 72 h, 10 nM","[4]; no lovastatin 72 hr, then taxol 10 nM 72 hr",63.6 ± 8.4%
same,"viability at 96 h, 2 nM","[4]; taxol 2 nM alone, Table 10",72.4 ± 6.9%
same,"viability at 48 h, 2 nM","[4]; taxol 2 nM, 48 hr",94.5 ± 5.4%
same,"viability at 48 h, 2 nM","[4]; taxol 2 nM, 48 hr, Table 9",88 ± 1.9%
same,"viability at 72 h, 2 nM","[4]; taxol 2 nM, 72 hr",89.2 ± 2.6%
same,"viability at 72 h, 2 nM","[4]; taxol 2 nM, 72 hr, Table 9",89.2 ± 2.6%
same,"viability at 96 h, 2 nM",[4]; taxol 2 nM,66.6 ± 3.5%
same,"viability at 120 h, 2 nM","[4]; taxol 2 nM, 120 hr",65.1 ± 0.9%
same,"viability at 96 h, 5 nM","[4]; taxol 5 nM alone, Table 10",49.3 ± 9.9%
same,"viability at 48 h, 5 nM","[4]; taxol 5 nM, 48 hr",72.9 ± 4%
same,"viability at 48 h, 5 nM","[4]; taxol 5 nM, 48 hr, Table 9",74.7 ± 2.3%
same,"viability at 72 h, 5 nM","[4]; taxol 5 nM, 72 hr",63.7 ± 2.3%
same,"viability at 72 h, 5 nM","[4]; taxol 5 nM, 72 hr, Table 9",63.7 ± 2.3%
same,"viability at 96 h, 5 nM",[4]; taxol 5 nM,36.2 ± 5.5%
same,"viability at 120 h, 5 nM","[4]; taxol 5 nM, 120 hr",33.8 ± 0.6%
same,"viability at 96 h, 10 nM","[4]; taxol 10 nM alone, Table 10",24.8 ± 2.5%
same,"viability at 48 h, 10 nM","[4]; taxol 10 nM, 48 hr",64.2 ± 3.8%
same,"viability at 48 h, 10 nM","[4]; taxol 10 nM, 48 hr, Table 9",58.1 ± 8.1%
same,"viability at 72 h, 10 nM","[4]; taxol 10 nM, 72 hr",39 ± 0.5%
same,"viability at 72 h, 10 nM","[4]; taxol 10 nM, 72 hr, Table 9",39 ± 0.5%
same,"viability at 96 h, 10 nM",[4]; taxol 10 nM,22.7 ± 4.1%
same,"viability at 120 h, 10 nM","[4]; taxol 10 nM, 120 hr",19 ± 3.4%
same,"viability at 48 h, 20 nM","[4]; taxol 20 nM, 48 hr",53.5 ± 1.1%
same,"viability at 72 h, 20 nM","[4]; taxol 20 nM, 72 hr",35.4 ± 3.6%
same,"viability at 48 h, 50 nM","[4]; taxol 50 nM, 48 hr",47 ± 2.3%
same,"viability at 72 h, 50 nM","[4]; taxol 50 nM, 72 hr",33.9 ± 3.7%
same,"viability at 48 h, 100 nM","[4]; taxol 100 nM, 48 hr",34.6 ± 9.1%
same,"viability at 72 h, 100 nM","[4]; taxol 100 nM, 72 hr",19.5 ± 4.6%
same,"viability at 48 h, 200 nM","[4]; taxol 200 nM, 48 hr",35.4 ± 5.5%
same,"viability at 72 h, 200 nM","[4]; taxol 200 nM, 72 hr",15.6 ± 5.8%
same,"viability at 48 h, 500 nM","[4]; taxol 500 nM, 48 hr",29.1 ± 4.2%
same,"viability at 72 h, 500 nM","[4]; taxol 500 nM, 72 hr",11 ± 5%
same,"viability at 48 h, 1000 nM","[4]; taxol 1000 nM, 48 hr",15 ± 3.9%
same,"viability at 72 h, 1000 nM","[4]; taxol 1000 nM, 72 hr",9.9 ± 4.9%
same,IC50,"[5]; HepG2, 48 h, read-out: IC50 (cell viability), 48 hr, Table 8",40.8 ± 7 nM
same,IC50,"[5]; HepG2, 48 h, read-out: IC50 (cell viability), 48 hr, Table 9",12.4 nM
same,IC50,"[5]; HepG2, 72 h, read-out: IC50 (cell viability), 72 hr, Table 8",7.8 ± 1 nM
same,IC50,"[5]; HepG2, 72 h, read-out: IC50 (cell viability), 72 hr, Table 9",7.8 nM
same,IC50,"[5]; HepG2, 96 h, read-out: IC50 (cell viability), 96 hr",3.6 nM
same,IC50,"[5]; HepG2, 120 h, read-out: IC50 (cell viability), 120 hr",3.5 nM
same,viability at 0.002 µM,"[6]; read-out: Cell viability, taxol 2 nM, 48 hr",93.1 ± 1.3%
same,viability at 0.002 µM,"[6]; read-out: Cell viability, taxol 2 nM, 48 hr, Table 9",97 ± 1.5%
